One test has as its target T1, C-CBL (residues 46-435) (Homo sapiens, UniProt P22681).
T1 construct: Purified CBL-B (residues 36-427) and C-CBL (residues 46-435) proteins from baculovirus-infected insect cells; made in house; host or cells: baculovirus-infected insect cells
T1 sequence (P22681 46-435): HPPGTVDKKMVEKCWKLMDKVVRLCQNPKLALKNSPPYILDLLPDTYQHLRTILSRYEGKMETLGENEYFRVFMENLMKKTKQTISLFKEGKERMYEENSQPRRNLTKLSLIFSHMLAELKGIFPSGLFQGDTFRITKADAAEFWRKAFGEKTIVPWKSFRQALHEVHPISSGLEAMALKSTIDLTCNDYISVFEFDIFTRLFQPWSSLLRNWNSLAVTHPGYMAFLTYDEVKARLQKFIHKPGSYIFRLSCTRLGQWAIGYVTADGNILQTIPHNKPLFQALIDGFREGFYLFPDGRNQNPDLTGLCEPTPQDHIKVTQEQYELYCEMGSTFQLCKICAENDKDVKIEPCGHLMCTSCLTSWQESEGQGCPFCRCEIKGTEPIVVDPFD
Briefly: Ligand Displacement Assay (LDA), HTRF competitive binding against BODIPY-labeled fluorescent tracer, C-CBL. The following applies: geometric mean of the number of tests, read-out: C-CBL Ki (nM) GMean. Summed up: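 Insect-cell (baculovirus) protein, N-term AviTag biotinylated via BirA, captured by SA-Tb; BODIPY tracer, KD measured per protein. 3-fold serial dilutions, duplicate, […], 2% DMSO final. Ki (nM) = geomean of runs.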

The target in another test is T2, C-CBL (46-435) (Homo sapiens, UniProt P22681).
T2 construct: N-terminal biotinylated WT CBL-B (36-427) and C-CBL (46-435) were captured on a streptavidin (SA) coated sensor chip
T2 sequence (P22681 46-435): T1 sequence (P22681 46-435)
The test is described as follows: Surface Plasmon Resonance (SPR) assay, binding affinity and kinetics, C-CBL. As to conditions: SPR at 10° C., biotinylated C-CBL (46-435) on streptavidin chip; geometric mean; read-out: C-CBL SPR Kd (nM) GMean. Summed up: (§1)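 SPR kinetics at 10° C, run either single-cycle (0.001–1 μM, 3-fold, 6 points, 120 s on, >5400 s off) or multi-cycle (10 points, 2-fold, top 10 or 100 μM, 90 s on). Proteins were N-biotinylated CBL-B (36-427) and C-CBL (46-435) on SA surfaces, in pH 7.2 HEPES, 2% DMSO.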

Another test addresses T3, WT CBL-B (36-427) (Homo sapiens, UniProt Q13191).
T3 construct: N-terminal biotinylated WT CBL-B (36-427) and C-CBL (46-435) were captured on a streptavidin (SA) coated sensor chip
The test is described as follows: Surface Plasmon Resonance (SPR) assay, binding affinity and kinetics, CBL-B. As to conditions: SPR at 10° C., biotinylated WT CBL-B (36-427) on streptavidin chip; geometric mean; read-out: CBL-B SPR Kd (nM) GMean. Summed up: as §1

These results are taken from US20260125375A1 (Pfizer Inc., priority 2022, published 2026).

For the compound `CC(c1nc(C(F)(F)F)cc2c(-c3cccc(C4(Cc5nncn5C)COC4)c3)n[nH]c12)N1CCOCC1` (single isomer, unassigned) [Example C24, 3-(3-{3-[(4-methyl-4H-1,2,4-triazol-3-yl)methyl]oxetan-3-yl}phenyl)-7-[(1ξ)-1-(morpholin-4-yl)ethyl]-5-(trifluoromethyl)-1H-pyrazolo[3,4-c]pyridine], the Ki on C-CBL (residues 46-435) is 134 nM. In addition, the Kd at C-CBL (46-435) came to 146 nM; at WT CBL-B (36-427), 16.9 nM.
For `CC(c1nc(C(F)(F)F)cc2c(-c3cccc(C4(Cc5nncn5C)COC4)c3)n[nH]c12)N1CCCCC1` (single isomer, unassigned) [Example C22, 3-(3-{3-[(4-methyl-4H-1,2,4-triazol-3-yl)methyl]oxetan-3-yl}phenyl)-7-[(1ξ)-1-(piperidin-1-yl)ethyl]-5-(trifluoromethyl)-1H-pyrazolo[3,4-c]pyridine], the Ki at C-CBL (residues 46-435) worked out at 133 nM. Also, the figures for the Kd on C-CBL (46-435) and at WT CBL-B (36-427) were 116 nM and 8.2 nM, respectively.
For `C[C@@H](N[C@H]1CCC(F)(F)C1)c1nc(C(F)(F)F)cc2c(-c3cccc(C4(Cc5nncn5C)COC4)c3)n[nH]c12` (single isomer, unassigned) [Example C13] the same measures were 8 nM, 11.9 nM and 2.8 nM.
The like results for `C[C@@H](N[C@H]1C[C@H](O)C1)c1nc(C(F)(F)F)cc2c(-c3cccc([C@H](c4nncn4C)C4CCC4)c3)n[nH]c12` (single isomer, unassigned) [Example C92] were, in that order, 50 nM, 39.5 nM and 2.7 nM.
The like results for `C[C@H](N[C@H]1CCC[C@@H]1O)c1nc(C(F)(F)F)cc2c(-c3cccc([C@H](c4nncn4C)C4CCC4)c3)n[nH]c12` (single isomer, unassigned) [Example C47] were, in that order, 5 nM, 7.2 nM and 1.6 nM.
Regarding `Cn1cnnc1[C@@H](c1cccc(-c2n[nH]c3c(CN[C@H]4CCOC4)nc(C(F)(F)F)cc23)c1)C1CCC1` [Example D1, (3S)—N-{[3-{3-[(R)-cyclobutyl(4-methyl-4H-1,2,4-triazol-3-yl)methyl]phenyl}-5-(trifluoromethyl)-1H-pyrazolo[3,4-c]pyridin-7-yl]methyl}oxolan-3-amine], the Ki on C-CBL (residues 46-435) was 210 nM. For the same compound, the results for the Kd at C-CBL (46-435) and at WT CBL-B (36-427) were 208 nM and 3.7 nM, respectively.
As to `C[C@@H](N[C@H]1CCC(F)(F)C1)c1nc(C(F)(F)F)cc2c(-c3cccc([C@H](c4nncn4C)C4CCC4)c3)n[nH]c12` [Example C9], the Ki at C-CBL (residues 46-435) worked out at 85.2 nM. The Kd at C-CBL (46-435) came out at 22.1 nM; on WT CBL-B (36-427), 3.1 nM.
For `C[C@H](N[C@@H]1CCC(F)(F)C1)c1nc(C(F)(F)F)cc2c(-c3cccc(C4(Cc5nncn5C)COC4)c3)n[nH]c12` (single isomer, unassigned) [Example C17] the same measures were 24.8 nM, 28.3 nM and 1.8 nM.
Take `C[C@H](N[C@@H]1CCOC1)c1nc(C(F)(F)F)cc2c(-c3cccc([C@H](c4nncn4C)C4CCC4)c3)n[nH]c12` (single isomer, unassigned) [Example D2]: the Ki on C-CBL (residues 46-435) amounted to 77.1 nM. Besides, the figures for the Kd on C-CBL (46-435) and on WT CBL-B (36-427) were 108 nM and 3.8 nM, respectively.
`C[C@H](N[C@H]1C[C@@H](F)C1)c1nc(C(F)(F)F)cc2c(-c3cccc([C@H](c4nncn4C)C4CCC4)c3)n[nH]c12` (single isomer, unassigned) [Example C95]: the Ki at C-CBL (residues 46-435) was 28 nM. Moreover, the Kd at C-CBL (46-435) is 72.5 nM; at WT CBL-B (36-427), 2.3 nM.
Consider `C[C@H](NC1CC[C@H]1O)c1nc(C(F)(F)F)cc2c(-c3cccc([C@H](c4nncn4C)C4CCC4)c3)n[nH]c12` (single isomer, unassigned) [Example D30], for which the Ki at C-CBL (residues 46-435) was determined as 5.1 nM. The Kd at C-CBL (46-435) came out at 5.6 nM; on WT CBL-B (36-427) it was 1.1 nM.
Take `CC(c1nc(C(F)(F)F)cc2c(-c3cccc(C4(Cc5nncn5C)COC4)c3)n[nH]c12)N1C[C@@H](F)[C@H](F)C1` (single isomer, unassigned) [Example C25]: on C-CBL (residues 46-435), the inhibitory constant (Ki) was determined as 33.1 nM. Also, the Kd on C-CBL (46-435) came to 31.8 nM; at WT CBL-B (36-427) it was 1.8 nM.
For `Cn1cnnc1CC1(c2cccc(-c3n[nH]c4c(CN[C@H]5CCC(F)(F)C5)nc(C(F)(F)F)cc34)c2)COC1` [Example C38, (1S)-3,3-difluoro-N-{[3-(3-{3-[(4-methyl-4H-1,2,4-triazol-3-yl)methyl]oxetan-3-yl}phenyl)-5-(trifluoromethyl)-1H-pyrazolo[3,4-c]pyridin-7-yl]methyl}cyclopentan-1-amine], on C-CBL (residues 46-435), the inhibitory constant (Ki) was found to be 32.9 nM. In addition, the results for the Kd at C-CBL (46-435) and at WT CBL-B (36-427) were 70.5 nM and 7.5 nM, respectively.
For `C[C@H]1CN([C@@H](C)c2nc(C(F)(F)F)cc3c(-c4cccc(C5(Cc6nncn6C)COC5)c4)n[nH]c23)CCO1` (single isomer, unassigned) [Example D11], the Ki at C-CBL (residues 46-435) stood at 27.2 nM. Moreover, the Kd amounted to 47.9 nM at C-CBL (46-435) and 4.2 nM at WT CBL-B (36-427).
Regarding `Cn1cnnc1[C@@H](c1cccc(-c2n[nH]c3c(CNC4CCCC4)nc(C(F)(F)F)cc23)c1)C1CCC1` [Example D4], at C-CBL (residues 46-435), the Ki came out at 54.8 nM. The equilibrium dissociation constant (Kd) on C-CBL (46-435) is 106 nM; at WT CBL-B (36-427), 2.8 nM.
The like results for `C[C@H](N[C@H]1CCOC1)c1nc(C(F)(F)F)cc2c(-c3cccc([C@H](c4nncn4C)C4CCC4)c3)n[nH]c12` (single isomer, unassigned) [Example C2] were, in that order, 55.6 nM, 38.8 nM and 2.5 nM.
Take `Cn1cnnc1[C@@H](c1cccc(-c2n[nH]c3c(CN[C@H]4CCC[C@@H]4O)nc(C(F)(F)F)cc23)c1)C1CCC1` [Example C4, (1S,2S)-2-({[3-{3-[(R)-cyclobutyl(4-methyl-4H-1,2,4-triazol-3-yl)methyl]phenyl}-5-(trifluoromethyl)-1H-pyrazolo[3,4-c]pyridin-7-yl]methyl}amino)cyclopentan-1-ol]: on C-CBL (residues 46-435), the Ki turned out to be 47.4 nM. For the same compound, the results for the Kd at C-CBL (46-435) and on WT CBL-B (36-427) were 49.9 nM and 2.1 nM, respectively.
In the case of `CC(c1nc(C(F)(F)F)cc2c(-c3cccc(C4(Cc5nncn5C)COC4)c3)n[nH]c12)N1CCC[C@H](C)C1` (single isomer, unassigned) [Example C19], at C-CBL (residues 46-435), the Ki worked out at 61.3 nM. Besides, the results for the Kd on C-CBL (46-435) and at WT CBL-B (36-427) were 51.3 nM and 2.4 nM, respectively.
On to `C[C@H]1CCCN(Cc2nc(C(F)(F)F)cc3c(-c4cccc([C@H](c5nncn5C)C5CCC5)c4)n[nH]c23)C1` [Example C7, 3-{3-[(R)-cyclobutyl(4-methyl-4H-1,2,4-triazol-3-yl)methyl]phenyl}-7-{[(3S)-3-methylpiperidin-1-yl]methyl}-5-(trifluoromethyl)-1H-pyrazolo[3,4-c]pyridine], for which the inhibition constant Ki on C-CBL (residues 46-435) came out at 53.1 nM. For the same compound, the Kd at C-CBL (46-435) came out at 47.7 nM; on WT CBL-B (36-427) it was 2.7 nM.
With `Cn1cnnc1[C@@H](c1cccc(-c2n[nH]c3c(CN[C@@H]4CCC[C@@H]4O)nc(C(F)(F)F)cc23)c1)C1CCC1` [Example C1, (1S,2R)-2-({[3-{3-[(R)-cyclobutyl(4-methyl-4H-1,2,4-triazol-3-yl)methyl]phenyl}-5-(trifluoromethyl)-1H-pyrazolo[3,4-c]pyridin-7-yl]methyl}amino)cyclopentan-1-ol], the Ki at C-CBL (residues 46-435) is 7.1 nM. In addition, the equilibrium dissociation constant (Kd) was 7.6 nM at C-CBL (46-435) and 1.2 nM on WT CBL-B (36-427).
